Patent US20240059658A1 (Emory University, priority 2019, published 2024)
pIC50: −log10 of the molar value.

Test system: EU-1
Experiment: WST cytotoxicity assay, cancer cell EU-1
Assay type: cell-based, human
Settings: EU-1; no other cell line named in the cell; read-out: Cancer cell (EU-1) cytotoxicity IC50
Procedure: This study used two ALL cell lines (EU-1 and EU-3) and three NB cell lines (NB-1643, SHEP1 and LA1-55N). All 5 cancer cell lines were established from pediatric ALL or NB patients and were well-characterized for their expression of MDM2 and p53-status, as reported previously. All cell lines were grown in standard culture medium (RPMI 1640 containing 10% FBS, 2 mmol/L L-glutamine, 50 U penicillin and 50 μg/mL streptomycin) at 37° C. in a humidified atmosphere containing 5% CO2.
The cytotoxic effect of MX 69 and MX69 analogs on cancer cells was determined using the water-soluble tetrazolium salt (WST) assay. Briefly, cells cultured in 96-well microtiter plates were treated with different concentrations of AQ-101 for a 20-h period. WST (25 μg/well) was then added and incubation continued for an additional 4 h, after which optical density (OD) was read with a microplate reader (test wavelength of 450 nm; reference wavelength of 620 nm).

`COC(=O)c1ccc([C@@H]2Nc3ccc(S(=O)(=O)Nc4ccc(C)c(C)c4)cc3[C@H]3OCC[C@H]32)cc1` [Compound 69L13] showed a pIC50 of 5.05 to 5.19.

Same assay, conditions: Homo sapiens, EU-1, EU-1; no other cell line named in the cell; read-out: Cancer cell (EU-1) cytotoxicity IC50

Compared with `Cc1ccc(NS(=O)(=O)c2ccc3c(c2)[C@H]2OCC[C@H]2C(c2ccc(C(=O)C4CC4)cc2)N3)cc1Cl` (stereo partly drawn) [Compound 69L69], `Cc1ccc(NS(=O)(=O)c2ccc3c(c2)[C@H]2OCC[C@H]2C(c2ccc(C(=O)O)cc2)N3)cc1C` (stereo partly drawn) [Compound 69L4] is lower in pIC50: 5.24 for the first, under 4.30 for the second.

Compared with `COc1cc(NS(=O)(=O)c2ccc3c(c2)C(=O)CC(c2ccc(C(C)=O)cc2)N3)ccc1C` (stereo not drawn) [Compound 69L165], `COc1cc(NS(=O)(=O)c2ccc3c(c2)C(=O)CC(c2cccc(C(C)=O)c2)N3)ccc1C` (stereo not drawn) [Compound 69L164] is 1.10 log units higher in pIC50: 5.05 for the first, 6.15 for the second. The second is the more potent here.

`CC(=O)c1ccc([C@@H]2Nc3ccc(S(=O)(=O)Nc4ccc(C)c(C)c4)cc3C3NCC[C@H]32)cc1` (stereo partly drawn) [Compound 69L50] and `CC(=O)c1ccc([C@H]2Nc3ccc(S(=O)(=O)Nc4ccc(C)c(C)c4)cc3C3NCC[C@H]32)cc1` (stereo partly drawn) [Compound 69L49] are within 0.2 log units of each other in pIC50: 5.39 for the first, 5.34 for the second.

`Cc1cc(NS(=O)(=O)c2ccc3c(c2)C2OCC[C@H]2C(c2ccc(C(=O)C(C)C)cc2)N3)ccc1C(F)(F)F` (stereo partly drawn) [Compound 69L89] and `Cc1cc(NS(=O)(=O)c2ccc3c(c2)[C@H]2OCC[C@H]2C(c2ccc(C(=O)C(C)C)cc2)N3)ccc1Cl` (stereo partly drawn) [Compound 69L77] are within 0.2 log units of each other in pIC50: 5.14 for the first, 5.20 for the second.

Compared with `CC(C)c1cccc(NS(=O)(=O)c2ccc3c(c2)C(=O)CC(c2cccc(C(C)C)c2)N3)c1` (stereo not drawn) [Compound 69L137], `CCc1cccc(NS(=O)(=O)c2ccc3c(c2)C(=O)CC(c2cccc(C(=O)C(C)C)c2)N3)c1` (stereo not drawn) [Compound 69L150, N-(3-ethylphenyl)-2-(3-isobutyrylphenyl)-4-oxo-1,2,3,4-tetrahydroquinoline-6-sulfonamide] is 2.10 log units higher in pIC50: 5.30 for the first, 7.40 for the second. The second is the more potent here.

Compared with `CC(=O)c1cccc(C2CC(=O)c3cc(S(=O)(=O)Nc4ccc5c(c4)OCO5)ccc3N2)c1` (stereo not drawn) [Compound 69L147], `CC(=O)c1cccc(C2CC(=O)c3cc(S(=O)(=O)Nc4ccc5c(c4)COC5)ccc3N2)c1` (stereo not drawn) [Compound 69L124, 2-(3-acetylphenyl)-N-(1,3-dihydroisobenzofuran-5-yl)-4-oxo-1,2,3,4-tetrahydroquinoline-6-sulfonamide] is 0.40 log units higher in pIC50: 5.94 for the first, 6.34 for the second. The second is the more potent here.

Going from `CCc1cccc(NS(=O)(=O)c2ccc3c(c2)[C@H]2OCC[C@H]2C(c2ccc(C(=O)C(C)C)cc2)N3)c1` (stereo partly drawn) [Compound 69L148] to `CC(C)C(=O)c1ccc(C2Nc3ccc(S(=O)(=O)Nc4cccc(N(C)C)c4)cc3[C@H]3OCC[C@@H]23)cc1` (stereo partly drawn) [Compound 69L141], the pIC50 falls from 5.69 to 5.12 (0.57 log units). The first is the more potent here.

First: COC(=O)c1ccc([C@@H]2Nc3ccc(S(=O)(=O)Nc4ccc(C)c(C)c4)cc3[C@H]3C=CC[C@H]32)cc1 [Compound 69L16]
Second: COC(=O)c1ccc([C@@H]2Nc3cc(Cl)c(S(=O)(=O)Nc4ccc(C)c(C)c4)cc3[C@H]3C=CC[C@H]32)cc1 [Compound 69L22]
The pIC50 of the first is 0.62 log units higher: 5.33 for the first, 4.71 for the second.

First: CCO[C@H]1C[C@H](c2ccc(C(=O)OC)cc2)Nc2ccc(S(=O)(=O)Nc3ccc(C)c(C)c3)cc21 [Compound 69L32]
Second: Cc1ccc(NS(=O)(=O)c2ccc3c(c2)C(O)C[C@H](c2ccc(C(=O)O)cc2)N3)cc1C (stereo partly drawn) [Compound 69L40]
The pIC50 of the first is higher: 5.14 for the first, under 4.30 for the second.

First: CC(C)C(=O)c1cccc(C2CC(=O)c3cc(S(=O)(=O)Nc4cccc5c4COC5=O)ccc3N2)c1 (stereo not drawn) [Compound 69L149]
Second: COc1cccc(NS(=O)(=O)c2ccc3c(c2)C(=O)CC(c2cccc(C(=O)C(C)C)c2)N3)c1 (stereo not drawn) [Compound 69L157, 2-(3-isobutyrylphenyl)-N-(3-methoxyphenyl)-4-oxo-1,2,3,4-tetrahydroquinoline-6-sulfonamide]
The pIC50 of the first is 0.24 log units lower: 6.24 for the first, 6.48 for the second.

Compared with `COC(=O)c1ccc([C@@H]2Nc3ccc(S(=O)(=O)Nc4ccc(C)c(C)c4)cc3[C@@H]3OCC[C@H]23)cc1` [Compound 69L29], `COC(=O)c1ccc([C@@H]2Nc3ccc(S(=O)(=O)Nc4ccc(C)c(C)c4)cc3[C@H]3OCC[C@H]32)cc1` [Compound 69L2] is lower in pIC50: 5.57 to 5.70 for the first, 5.28 to 5.46 for the second.

First: CC(=O)c1cccc(NS(=O)(=O)c2ccc3c(c2)[C@H]2OCC[C@H]2[C@H](C2CCCCC2)N3)c1 [Compound 69L144]
Second: CN(C)c1cccc(NS(=O)(=O)c2ccc3c(c2)[C@H]2OCC[C@H]2[C@H](C2CCCCC2)N3)c1 [Compound 69L143]
The pIC50 of the first is 0.42 log units higher: 5.82 for the first, 5.40 for the second. The first is the more potent here.

Compared with `CCc1cccc(NS(=O)(=O)c2ccc3nc(-c4cccc(C(=O)C(C)C)c4)c(OC)cc3c2)c1` [Compound 69L167], `COc1cc(NS(=O)(=O)c2ccc3c(c2)C(=O)CC(c2cccc(C(=O)C(C)C)c2)N3)ccc1C` (stereo not drawn) [Compound 69L160, 2-(3-isobutyrylphenyl)-N-(3-methoxy-4-methylphenyl)-4-oxo-1,2,3,4-tetrahydroquinoline-6-sulfonamide] is 0.83 log units higher in pIC50: 5.44 for the first, 6.27 for the second.

Compared with `COC(=O)c1ccc([C@H]2Nc3cc(Cl)c(S(=O)(=O)Nc4ccc(C)c(C)c4)cc3[C@H]3OCC[C@@H]23)cc1` [Compound 69L25], `CC(=O)Nc1ccc(C2Nc3ccc(S(=O)(=O)Nc4ccc(C)c(C)c4)cc3C3OCC[C@@H]23)cc1` (stereo partly drawn) [Compound 69L51] is higher in pIC50: under 4.30 for the first, 5.35 for the second.

Going from `CCc1cccc(NS(=O)(=O)c2ccc3c(c2)C(=O)CC(c2cccc(C(=O)N(C)C)c2)N3)c1` (stereo not drawn) [Compound 69L166] to `COc1cccc(NS(=O)(=O)c2ccc3c(c2)C(=O)CC(c2cccc(C(=O)N(C)C)c2)N3)c1` (stereo not drawn) [Compound 69L159, 3-(6-(N-(3-methoxyphenyl)sulfamoyl)-4-oxo-1,2,3,4-tetrahydroquinolin-2-yl)-N,N-dimethylbenzamide], the pIC50 falls from 6.96 to 6.19 (0.77 log units).

First: CC(C)C(=O)c1ccc(C2Nc3ccc(S(=O)(=O)Nc4ccc(Br)c(Br)c4)cc3[C@H]3OCC[C@@H]23)cc1 (stereo partly drawn) [Compound 69L74]
Second: Cc1ccc(NS(=O)(=O)c2ccc3c(c2)C2OCC[C@H]2C(c2ccc(C(=O)C(C)C)cc2)N3)cc1 (stereo in doubt) [Compound 69L85, 4-(4-isobutyrylphenyl)-N-(p-tolyl)-2,3,3a,4,5,9b-hexahydrofuro[3,2-c]quinoline-8-sulfonamide]
The pIC50 of the first is 0.20 log units lower: 5.28 for the first, 5.48 for the second.

Compared with `CC(=O)c1cccc(NS(=O)(=O)c2ccc3c(c2)[C@H]2OCC[C@H]2C(c2ccc(C(C)C)cc2)N3)c1` (stereo partly drawn) [Compound 69L115], `CC(C)C(=O)c1ccc(C2Nc3ccc(S(=O)(=O)Nc4cccc(C(C)(C)C)c4)cc3[C@H]3OCC[C@@H]23)cc1` (stereo partly drawn) [Compound 69L136] is 1.04 log units lower in pIC50: 6.25 for the first, 5.21 for the second.

`Cc1ccc(N(C)S(=O)(=O)c2ccc3c(c2)[C@H]2OCC[C@H]2[C@@H](c2ccc(C(=O)C(C)C)cc2)N3)cc1C` (stereo in doubt) [Compound 69L132, N-(3,4-dimethylphenyl)-4-(4-isobutyrylphenyl)-N-methyl-2,3,3a,4,5,9b-hexahydrofuro[3,2-c]quinoline-8-sulfonamide] and `Cc1ccc(N(C)S(=O)(=O)c2ccc3c(c2)[C@H]2OCC[C@H]2C(c2ccc(C(=O)C(C)C)cc2)N3C)cc1C` (stereo in doubt) [Compound 69L131, N-(3,4-dimethylphenyl)-4-(4-isobutyrylphenyl)-N,5-dimethyl-2,3,3a,4,5,9b-hexahydrofuro[3,2-c]quinoline-8-sulfonamide] are within 0.2 log units of each other in pIC50: 5.80 for the first, 5.94 for the second.

Going from `Cc1ccc(NS(=O)(=O)c2ccc3c(c2)[C@H]2OCC[C@H]2C(c2ccc(Br)cc2)N3)cc1C` (stereo partly drawn) [Compound 69L8] to `Cc1ccc(NS(=O)(=O)c2ccc3c(c2)[C@H]2OCC[C@H]2C(c2ccc(-n4ccccc4=O)cc2)N3)cc1C` (stereo partly drawn) [Compound 69L15], the pIC50 falls from 5.44 to 4.75 (0.69 log units).

Going from `COC(=O)c1ccc([C@@H]2Nc3ccc(S(=O)(=O)Nc4ccc(C)c(C)c4)cc3[C@H]3c4ccccc4C[C@H]32)cc1` [Compound 69L3] to `Cc1ccc(NS(=O)(=O)c2ccc3c(c2)C2NCC[C@H]2[C@H](c2ccc(C(=O)O)cc2)N3)cc1C` (stereo partly drawn) [Compound 69L41], the pIC50 falls from 4.74 to under 4.30.

Going from `O=S(=O)(Nc1ccc(Br)c(Br)c1)c1ccc2c(c1)[C@H]1OCC[C@H]1[C@H](C1CCCCC1)N2` [Compound 69L68] to `O=S(=O)(Nc1ccc2c(c1)CCO2)c1ccc2c(c1)[C@H]1OCC[C@H]1C(c1ccccc1)N2` (stereo partly drawn) [Compound 69L118], the pIC50 rises from 5.29 to 6.82 (1.53 log units).

`Cc1ccc(NS(=O)(=O)c2ccc3c(c2)[C@H]2OCC[C@H]2C(c2ccc(B4OCC(C)(C)CO4)cc2)N3)cc1C` (stereo partly drawn) [Compound 69L17] and `CC(C)C(=O)c1ccc(C2Nc3ccc(S(=O)(=O)Nc4ccc5c(c4)OCO5)cc3[C@H]3OCC[C@@H]23)cc1` (stereo partly drawn) [Compound 69L142] cannot be ordered by pIC50: 5.06 for the first, under 5.30 for the second.

Compared with `CC(C)C(=O)c1cccc(C2Nc3ccc(S(=O)(=O)Nc4cccc(C(C)O)c4)cc3C3OCC[C@@H]23)c1` (stereo partly drawn) [Compound 69L122], `CCC(=O)c1cccc(NS(=O)(=O)c2ccc3c(c2)C2OCC[C@H]2C(c2ccc4c(c2)CCO4)N3)c1` (stereo in doubt) [Compound 69L127, 4-(2,3-dihydrobenzofuran-5-yl)-N-(3-propionylphenyl)-2,3,3a,4,5,9b-hexahydrofuro[3,2-c]quinoline-8-sulfonamide] is higher in pIC50: under 5.00 for the first, 5.32 for the second. The second is the more potent here.

Compared with `Cc1ccc(NS(=O)(=O)c2ccc3[nH]c(-c4ccc(C(=O)C(C)C)cc4)c(I)c(=O)c3c2)cc1C` [Compound 69L97], `Cc1ccc(NS(=O)(=O)c2ccc3c(c2)C2NCC[C@H]2C(c2c[nH]c4ccccc24)N3)cc1C` (stereo partly drawn) [Compound 69L37] is 0.29 log units higher in pIC50: 5.03 for the first, 5.32 for the second.

Going from `Cc1ccc(NS(=O)(=O)c2ccc3c(c2)[C@H]2C=CC[C@H]2[C@H](c2ccc(S(C)(=O)=O)cc2)N3)cc1C` [Compound 69L21] to `Cc1ccc(NS(=O)(=O)c2ccc3c(c2Cl)[C@H]2C=CC[C@H]2[C@H](c2ccc(S(C)(=O)=O)cc2)N3)cc1C` [Compound 69L23], the pIC50 falls from 5.21 to 4.63 (0.58 log units). The first is the more potent here.
